Experimental data as given in ChEMBL document CHEMBL3785052, “Novel spiropyrazolone antitumor scaffold with potent activity: Design, synthesis and structure-activity relationship” (Eur J Med Chem, 2016).

Tests used:
A549 = assay: Cytotoxicity against human A549 cells assessed as growth inhibition after 72 hrs by MTT assay; type: functional, cell-based; conditions: A549, 72 h
[1] = Cytotoxicity against human HCT116 cells assessed as growth inhibition after 72 hrs by MTT assay; type: functional, cell-based; conditions: HCT-116, 72 h
MDA-MB-231 = assay: Cytotoxicity against human MDA-MB-231 cells assessed as growth inhibition after 72 hrs by MTT assay; type: functional, cell-based; conditions: MDA-MB-231, 72 h
HCT-116 [2] = assay: Induction of apoptosis in human HCT116 cells assessed as apoptotic cells at 5 uM after 24 hrs by annexin V-FITC/propidium iodide staining based flow cytometric analysis; type: functional
HCT-116 [3] = assay: Induction of apoptosis in human HCT116 cells assessed as apoptotic cells at 5 uM after 48 hrs by annexin V-FITC/propidium iodide staining based flow cytometric analysis; type: functional

Compound | IC50 (A549) [µM] | IC50 [1] [µM] | IC50 (MDA-MB-231) [µM] | Activity (HCT-116 [2]) [%] | Activity (HCT-116 [3]) [%]
COc1ccccc1[C@H]1CC=CC(=O)[C@@]12C(=O)N(c1ccccc1)N=C2C (racemic) | 18.7 | 13.9 | 15.7 | – | –
CC1=NN(c2ccc(C)cc2)C(=O)[C@@]12C(=O)C=CC[C@@H]2c1ccc(C)cc1 (racemic) | 4.32 | 4.15 | 8.12 | – | –
CC1=NN(c2ccccc2)C(=O)[C@]12C(=O)C=CC[C@H]2c1cccc(C)c1 | 13.1 | 9.58 | 10.3 | – | –
COc1cccc2c1C(=O)c1c(O)c3c(c(O)c1C2=O)C[C@@](O)(C(=O)CO)C[C@@H]3O[C@H]1C[C@H](N)[C@H](O)[C@H](C)O1 [DOXORUBICIN] | – | – | 0.45 | – | –
CC1=NN(c2ccccc2)C(=O)[C@]12C(=O)C=CC[C@H]2c1ccccc1 | 8.29 | 5.3 | 5.8 | – | –
CC1=NN(c2ccc(C)cc2)C(=O)[C@]12C(=O)C=CC[C@H]2c1ccc(C)cc1 | 7.52 | 3.53 | 8.28 | – | –
CC1=NN(c2ccccc2)C(=O)[C@]12C(=O)C=CC[C@H]2c1ccc(C)cc1 | 2.89 | 4.22 | 5.72 | – | –
CC1=NN(c2ccccc2)C(=O)[C@@]12C(=O)C=CC[C@H]2c1ccc(C)cc1 | 6.09 | 5.21 | 8.3 | – | –
CC1=NN(c2ccccc2)C(=O)[C@@]12C(=O)C=CC[C@@H]2c1ccccc1 (racemic) | 7.77 | 6.07 | 9.31 | – | –
CC1=NN(c2ccccc2)C(=O)[C@@]12C(=O)C=CC[C@H]2c1cccc(C)c1 | 3.5 | 5.82 | 6.61 | – | –
CC1=NN(c2ccccc2)C(=O)[C@@]12C(=O)C=CC[C@@H]2c1ccc(C)cc1 (racemic) | 6.57 | 5.22 | 7.42 | – | –
CC1=NN(c2ccccc2)C(=O)[C@]12C(=O)C=CC[C@H]2c1ccccc1[N+](=O)[O-] | 12.9 | 11.2 | 32.4 | – | –
CC1=NN(c2ccccc2)C(=O)[C@@]12C(=O)C=CC[C@@H]2c1ccccc1[N+](=O)[O-] (racemic) | 66.4 | 66.8 | 68.3 | – | –
CC1=NN(c2ccccc2)C(=O)[C@]12C(=O)C=CC[C@@H]2c1cccc(C)c1 (racemic) | 4.77 | 5.49 | 8 | – | –
CC1=NN(c2ccccc2)C(=O)[C@]12C(=O)C=CC[C@@H]2c1ccccc1 (racemic) | 9.18 | 6.04 | 9.08 | – | –
COc1ccccc1[C@@H]1CC=CC(=O)[C@]12C(=O)N(c1ccccc1)N=C2C | 3.96 | 2.85 | 5.14 | 68.44 | 72.13
CC1=NN(c2ccc(C)cc2)C(=O)[C@@]12C(=O)C=CC[C@H]2c1ccc(C)cc1 | 6.79 | 3.62 | 9.2 | – | –
CC1=NN(c2ccccc2)C(=O)[C@]12C(=O)C=CC[C@@H]2c1ccc(C)cc1 (racemic) | 8.6 | 5.8 | 6.24 | – | –
CC1=NN(c2ccccc2)C(=O)[C@@]12C(=O)C=CC[C@@H]2c1cccc(C)c1 (racemic) | 4.51 | 3.8 | 6.8 | – | –
CC1=NN(c2ccc(C)cc2)C(=O)[C@]12C(=O)C=CC[C@@H]2c1ccc(C)cc1 (racemic) | 54.2 | 14.6 | 57.2 | – | –
CC1=NN(c2ccccc2)C(=O)[C@@]12C(=O)C=CC[C@H]2c1ccccc1 | 3.77 | 4.4 | 5.5 | – | –
O=C(CCCCCCC(=O)Nc1ccccc1)NO [VORINOSTAT] | – | – | – | 42.2 | 62.4
